Values belong to the compound of their own block, whether it stands above or below them.
Experiments:
[1] = target: T1, PIKfyve (Homo sapiens, UniProt Q9Y2I7); test: Assessment of lipid kinase inhibitory activity (competition with biotinyl acyl phosphate ATP derivative in Jurkat cell extract, LC-MS/MS); type: binding; settings: test compound 30 nM or 300 nM, FIG. 1
T1 construct: the supernatant resulting from centrifugation at 100,000×g for 60 minutes was used as a cell extract; endogenous in cells; host or cells: Jurkat (human T-lymphocyte line), cell extract
T1 sequence (Q9Y2I7 whole entry): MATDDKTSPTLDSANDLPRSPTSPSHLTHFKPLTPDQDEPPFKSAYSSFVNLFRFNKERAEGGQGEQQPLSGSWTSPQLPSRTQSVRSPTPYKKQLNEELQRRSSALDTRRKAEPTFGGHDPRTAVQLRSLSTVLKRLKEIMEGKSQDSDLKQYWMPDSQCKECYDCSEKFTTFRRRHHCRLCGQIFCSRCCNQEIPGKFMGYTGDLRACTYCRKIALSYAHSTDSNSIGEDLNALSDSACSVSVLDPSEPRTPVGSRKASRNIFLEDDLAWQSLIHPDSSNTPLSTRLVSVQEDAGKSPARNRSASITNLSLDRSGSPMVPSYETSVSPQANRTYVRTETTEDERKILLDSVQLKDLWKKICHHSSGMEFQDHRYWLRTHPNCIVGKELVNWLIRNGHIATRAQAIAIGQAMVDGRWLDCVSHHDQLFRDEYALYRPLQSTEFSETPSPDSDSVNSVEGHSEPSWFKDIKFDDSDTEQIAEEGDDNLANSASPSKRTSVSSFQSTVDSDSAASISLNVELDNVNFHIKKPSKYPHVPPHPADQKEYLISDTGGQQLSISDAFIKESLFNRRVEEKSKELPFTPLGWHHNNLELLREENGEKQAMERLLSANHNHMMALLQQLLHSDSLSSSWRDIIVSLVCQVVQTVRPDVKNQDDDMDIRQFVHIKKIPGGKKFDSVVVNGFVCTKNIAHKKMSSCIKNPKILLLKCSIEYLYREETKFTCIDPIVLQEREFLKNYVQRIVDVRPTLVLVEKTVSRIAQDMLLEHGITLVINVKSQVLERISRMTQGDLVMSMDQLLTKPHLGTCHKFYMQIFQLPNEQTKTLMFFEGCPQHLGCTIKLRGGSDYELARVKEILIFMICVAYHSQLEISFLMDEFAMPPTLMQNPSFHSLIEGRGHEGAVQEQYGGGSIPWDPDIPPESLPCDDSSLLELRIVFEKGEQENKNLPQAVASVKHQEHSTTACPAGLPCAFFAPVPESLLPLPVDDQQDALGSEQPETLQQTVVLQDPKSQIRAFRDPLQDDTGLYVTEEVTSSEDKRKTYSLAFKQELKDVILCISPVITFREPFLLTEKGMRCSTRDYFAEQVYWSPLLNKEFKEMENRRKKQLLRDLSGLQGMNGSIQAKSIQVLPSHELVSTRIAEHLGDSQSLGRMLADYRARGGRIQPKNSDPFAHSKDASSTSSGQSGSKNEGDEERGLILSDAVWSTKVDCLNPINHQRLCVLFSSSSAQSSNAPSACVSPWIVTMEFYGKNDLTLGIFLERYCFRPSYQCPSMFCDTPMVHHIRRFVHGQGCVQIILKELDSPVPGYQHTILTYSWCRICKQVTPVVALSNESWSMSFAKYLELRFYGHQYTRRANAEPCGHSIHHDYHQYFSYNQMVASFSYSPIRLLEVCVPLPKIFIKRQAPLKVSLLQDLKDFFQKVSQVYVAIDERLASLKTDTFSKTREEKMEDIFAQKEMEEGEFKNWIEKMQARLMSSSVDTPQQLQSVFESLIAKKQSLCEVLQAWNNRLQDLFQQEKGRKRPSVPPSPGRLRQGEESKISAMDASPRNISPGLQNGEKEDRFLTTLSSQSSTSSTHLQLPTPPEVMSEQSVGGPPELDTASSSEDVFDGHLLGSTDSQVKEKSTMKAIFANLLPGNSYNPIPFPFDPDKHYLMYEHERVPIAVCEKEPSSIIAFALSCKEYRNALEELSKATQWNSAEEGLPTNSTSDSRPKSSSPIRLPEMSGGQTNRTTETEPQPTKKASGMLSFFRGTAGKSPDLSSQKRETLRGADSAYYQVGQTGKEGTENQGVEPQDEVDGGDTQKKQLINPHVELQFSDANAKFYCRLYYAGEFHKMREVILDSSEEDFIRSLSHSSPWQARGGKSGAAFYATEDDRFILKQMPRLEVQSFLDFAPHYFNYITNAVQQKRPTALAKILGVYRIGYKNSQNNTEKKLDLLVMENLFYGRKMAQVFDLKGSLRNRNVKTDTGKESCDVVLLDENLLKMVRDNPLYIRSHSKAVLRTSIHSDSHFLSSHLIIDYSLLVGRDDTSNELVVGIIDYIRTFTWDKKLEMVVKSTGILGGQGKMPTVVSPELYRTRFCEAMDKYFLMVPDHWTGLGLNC
Experimental: Lipid kinase inhibitory activity was assessed according to the method described in Biochemistry 2007, 46, 350-358. Jurkat cell derived from human lymphocyte was suspended in a lysis buffer (20 mM Hepes, 150 mM NaCl, 0.1% TritonX-100, 20 mM MnCl2) by sonication, and the supernatant resulting from centrifugation at 100,000×g for 60 minutes was used as a cell extract. To the cell extract (5 mg/mL), a test compound (30 nM or 300 nM) or a solvent alone was added and incubated for 5 minutes. Then, an ATP derivative labeled with biotinyl acyl phosphate (20 μM) was added and incubated for 5 minutes, and the resultant was further subjected to digestion with trypsin. […] The biotin-labeled peptide was analyzed by LC-MS/MS for sequence identification and measurement of the elution amount of the lipid-kinase-derived peptide so as to assess competitive inhibitory activity of the test compound for the binding of the ATP derivative to various lipid kinases. […]
Using this assessment system, the inhibitory activity of the test compound for other lipid kinases was assessed (other lipid kinases may be commercially available or may be produced according to a method described in a known document) and the results thereof are shown in FIG. 1.

[2] = system: mouse enterocolitis model; test: Inflammation suppressive action in mouse IL-10-/- cell transfer enterocolitis model; type: in vivo; settings: FIG. 3
Experimental: A method for producing a mouse IL-10^−/− cell transfer enterocolitis model is described, for example, in Gastroenterology. 2009 February; 136(2):564-74.e2. Epub 2008 Oct. 7.
Measurement of an intestine weight as a drug efficacy indicator was carried out according to the following method. On the last day for autopsy, large intestine from the anus to immediately before the cecum was removed. The content of the intestine was washed with physiological saline, water was roughly removed and then the weight was measured.
Results from the assessment of the inflammation suppressive action of Compound 1 in mouse enterocolitis model using this assessment system are shown in FIG. 3.

[3] = system: IL-12 and IL-23 productions; settings: productions strongly induced by INF-γ; cited from earlier work
[4] = system: IL-12b expression in mouse peritoneal macrophage; test: IL-12-production suppressive action by PIKfyve and Vac14 knockdown (siRNA, quantitative PCR); type: cell-based; settings: siRNA 1 μM, mouse interferon-γ and SAC stimulation 3.5 hours, normalized to GAPDH; FIG. 4
Experimental: Assessment of the effects of knockdown of PIKfyve and Vac14 expressed in mouse peritoneal macrophage using siRNA method was carried out as described below. Mouse peritoneal macrophage was isolated according to the method described in Laboratory Test Example 2, and subsequently suspended in Nucleofection solution attached to Mouse macrophage nucleofection kit (Lonza) to give 3.3×10^6 cells/mL. siRNA was added to the cell suspension to a final concentration of 1 μM and subjected to Nucleofection according to the attached protocol. The following siRNAs were used. […]
A FBS-free RPMI1640 medium was used for culture at 37° C. in the presence of 5% CO2 for 2 hours and then the medium was replaced by 0.5 ml of Dulbecco's MEM medium containing RPMI 1640 medium supplemented with 3% FBS for culture at 37° C. in the presence of 5% CO2 for 4 hours. Subsequently, 3.3 ng/mL mouse interferon-γ and 0.0017% (v/v) SAC were added and cultured for 3.5 hours and then the expression level of cytokine mRNA in the cell was measured.
Extraction and purification of total RNA from the mouse peritoneal macrophage was carried out using RNeasy midi kit (Qiagen 75144) according to the attached protocol. […] The resultant removed of the remaining […] was used as cDNA for quantitative PCR. […]

inhibitory activity against various lipid kinases (selectivity) [1]: inhibitory activity selective to PIKfyve
Compound: Cc1cccc(C=NNc2cc(N3CCOCC3)n3nc(-c4ccncc4)cc3n2)c1 [Compound 1, N-(3-METHYL-BENZYLIDENE)-N′-(7-MORPHOLINE-4-YL-2-PYRIDINE-4-YL-PYRAZOLO[1,5-A]PYRIMIDINE-5-YL)-HYDRAZINE]
weight of the large intestine ([2]; 3, 10, 30 mg/kg, increase by IL-10-/- cell transfer): suppressed dependent on the dosage
suppressive action on large intestine weight ([2]; administration group of 30 mg/kg, once a day): Significant suppressive action

inhibitory activity against various lipid kinases (selectivity) [1]: inhibitory activity selective to PIKfyve
Compound: C(=NNc1cc(N2CCOCC2)n2nc(-c3ccncc3)cc2n1)c1ccc2cc[nH]c2c1 [Compound 2, N-(1H-INDOLE-6-YLMETHYLENE)-N′-(7-MORPHOLINE-4-YL-2-PYRIDINE-4-YL-PYRAZOLO[1,5-A]PYRIMIDINE-5-YL)-HYDRAZINE]

Compound: O=C1CCC(N2C(=O)c3ccccc3C2=O)C(=O)N1 (stereo not drawn) [thalidomide]
suppression of IL-12 and IL-23 productions [3]: cannot sufficiently suppress

Compound: Vac14 siRNA: Silencer Select Pre-designed siRNA (Sense SEQ ID NO: 11, Antisense SEQ ID NO:12, Ambion, s107929) as Vac14 siRNA (sense GAUUUACUCCAACAACCAATT; antisense UUGGUUGUUGGAGUAAAUCCT; chemistry not given here)
IL-12b expression (fold-change over basal) [4]: significantly suppressed

Reference: patent publication US20130017548A1, “SCREENING METHOD” (AJINOMOTO, INC., priority 2009, published 2013)
